Literature values, collected in US10376473B2, “Transdermal adhesive compositions, devices, and methods” (priority 2010, dated 2019).
Read-outs that look alike come from different tables or passages of the source.

Settings: after 2 months at 60° C.

CCN(C)C(=O)Oc1cccc([C@H](C)N(C)C)c1 [(S)—N-ethyl-3-[(1-dimethylamino)ethyl]-N-methylphenyl carbamate]
degradation products (composition with 0.1% tocopherol (antioxidant)): 1.3%
degradation products (composition without the antioxidant): 4.46%
